Values quoted from earlier work in US7316771B2, “Medium for analytic and preparative electrophoresis” (Becton, Dickinson and Company, priority 2000, dated 2008).
Where “and” joins values, the source holds several entries; their conditions need not be identical. Equal values may be shown once. Read-outs that look alike come from different tables or passages of the source.

Details: for pKa (Acid): substance used as acid in the medium; for pKa (Base): substance used as base in the medium

Oc1ccncc1 [4-Hydroxy-Pyridine]
pKa (Acid): 11.2

CN1CC(=O)NC1=N [Creatinine]
pKa (Base): 4.8

CC(C)C(=O)O [Isobutyric Acid]
pKa (Acid): 4.5

CN(CC(=O)O)C(=N)N [Creatine]
pKa (Base): 2.7

C[N+](C)(C)CC(=O)O [Betaine]
pKa (Base): 1.8

Oc1ccccn1 [2-Hydroxy-Pyridine]
pKa (Acid): 11.8 | pKa (Acid) (listed as 2-hydroxy pyridine): 11.6

CCC(N)C(=O)O (centres unmarked) [2-Amino Butyric Acid]
pKa (Base): 2.3 and 2.2

O=C(O)c1ccccn1 [Picolinic Acid]
pKa (Acid): 5.5

NCC(=O)NCC(=O)O [Glycyl Glycine]
pKa (Base): 3.1

NC(=O)c1cccnc1 [Nicotinic Acid Amide]
pKa (Base): 3.1
